Test results reported in ChEMBL document CHEMBL1201862, “PubChem BioAssay data set” (2004).
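In this assay, cells in 96-well plates receive the compound at five concentrations for 48 hours. Endpoints are linearly interpolated between the surrounding concentrations. Abbreviation: GI50, concentration required for 50% inhibition of growth.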 Activity calls are given as the source filed them. Rule as the data show it: active = GI50 up to about 1.1 µM and inactive = higher.

Assays:
Experiment in all cases: DTP human tumour cell line panel, 48 h
HL-60 = tested on: HL-60
IGROV-1 = tested on: IGROV-1
LOX IMVI = tested on: LOX IMVI
SN12C = tested on: SN12C
RXF 393 = tested on: RXF 393
SF-539 = tested on: SF-539
OVCAR-8 = tested on: OVCAR-8
RPMI-8226 = tested on: RPMI-8226
HT-29 = tested on: HT-29
TK-10 = tested on: TK-10
DMS-273 = tested on: DMS-273
HOP-62 = tested on: HOP-62
SK-MEL-28 = tested on: SK-MEL-28
OVCAR-3 = tested on: OVCAR-3
NCI-H226 = tested on: NCI-H226
UACC-257 = tested on: UACC-257
SK-OV-3 = tested on: SK-OV-3

Measured: GI50

O=C1NC2(C=Cc3c(ccc4ccccc34)O2)Oc2ccccc21 (stereo not drawn)
inactive: HL-60 4.81 µM | IGROV-1 28.1 µM | LOX IMVI 12.9 µM | SN12C 17.4 µM | RXF 393 14.3 µM | SF-539 15.5 µM | OVCAR-8 26.9 µM | RPMI-8226 6.08 µM | HT-29 11.3 µM | TK-10 21.5 µM | DMS-273 9.51 µM | HOP-62 31.7 µM | SK-MEL-28 15.6 µM | OVCAR-3 13.4 µM | NCI-H226 26.5 µM

O=C(NCCCCCCCCNC(=O)c1cnc2ccccc2n1)c1cnc2ccccc2n1
inactive: HL-60 > 100 µM | UACC-257 > 100 µM | IGROV-1 > 100 µM | LOX IMVI > 100 µM | SN12C > 100 µM | RXF 393 > 100 µM | SK-OV-3 > 100 µM | SF-539 > 100 µM | OVCAR-8 > 100 µM | RPMI-8226 > 100 µM | HT-29 > 100 µM | TK-10 > 100 µM | DMS-273 > 100 µM | HOP-62 > 100 µM | OVCAR-3 > 100 µM | NCI-H226 32.1 µM

COC(=O)c1c(CC#N)cccc1CC#N
inactive: HL-60 > 100 µM | UACC-257 > 100 µM | IGROV-1 > 100 µM | LOX IMVI > 100 µM | SN12C > 100 µM | RXF 393 > 100 µM | SK-OV-3 > 100 µM | SF-539 > 100 µM | OVCAR-8 > 100 µM | RPMI-8226 > 100 µM | HT-29 > 100 µM | DMS-273 > 100 µM | HOP-62 > 100 µM | OVCAR-3 > 100 µM | NCI-H226 > 100 µM

Cc1nc(Nc2ccc(Cl)cc2)sc1C(=O)NNC(=S)NN
inactive: HL-60 21.4 µM | UACC-257 13.2 µM | IGROV-1 25.9 µM | LOX IMVI 14.5 µM | SN12C 18.1 µM | RXF 393 12.7 µM | SK-OV-3 27.4 µM | SF-539 17.5 µM | OVCAR-8 21.3 µM | RPMI-8226 29 µM | TK-10 20.9 µM | DMS-273 18.6 µM | HOP-62 18.8 µM | SK-MEL-28 19.3 µM | OVCAR-3 19.3 µM | NCI-H226 19.1 µM

C=CC(=O)NCCSCCCOC1(C(=O)O)CC(O)C(NC(C)=O)C(C(O)C(O)CO)O1 (stereo not drawn)
inactive: HL-60 > 100 µM | UACC-257 > 100 µM | IGROV-1 > 100 µM | LOX IMVI > 100 µM | SN12C > 100 µM | RXF 393 > 100 µM | SK-OV-3 > 100 µM | SF-539 > 100 µM | OVCAR-8 > 100 µM | RPMI-8226 > 100 µM | HT-29 > 100 µM | TK-10 > 100 µM | DMS-273 > 100 µM | SK-MEL-28 > 100 µM | OVCAR-3 > 100 µM | NCI-H226 > 100 µM
